Data as given in patent publication US20060116390A1, “Hepatitis c virus inhibitors” (priority 2003, published 2006).
Read-outs that look alike come from different tables or passages of the source.

System: HCV proteins in Rep5.1 cells (replicon cell line)
Experiment: Inhibitory activity of HCV: cell-based ELISA in replicon cell line Rep5.1 (decrease of HCV proteins)
Design: species or system hepatitis C virus
Conditions: Rep5.1 cells, 72 hours with drug
Outline: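 HCV protein loss was quantified by ELISA on methanol/acetone-fixed cells 72 h after drug addition, probing with selected HCV-positive human plasma, and IC50 was defined as 50% reduction relative to untreated wells. The cells were Rep5.1 replicon cells cultured in DMEM-10 with 500 μg/ml G418, plated at 5000 per well and dosed with serial dilutions after 4 h attachment.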

[1] = Hepatitis C virus, 72 h, concentration at which 50% of HCV proteins was decreased, Table 2, read-out: IC50
[2] = Hepatitis C virus, 72 h, decrease of HCV proteins measured by HCV antibody, Table 1, read-out: Level (IC50 values classified)
[3] = concentration at which 50% of HCV proteins was decreased, Table 2, read-out: IC50

Compound	IC50 [1] [nM]	IC50 [2] [nM]	IC50 [3] [nM]
CC1=C(C(=O)SCCc2ccccc2)C(CF)NC(=S)N1 (centres unmarked) [88′, 4-fluoromethyl-6-methyl-2-thioxo-1,2,3,4-tetrahydro-pyrimidine-5-carbothioic acid S-phenethyl ester]	400	< 1000	–
CC1=C(C(=O)OCC#Cc2cccs2)CNC(=S)N1 [Compound 239, 6-methyl-2-thioxo-1,2,3,4-tetrahydro-pyrimidine-5-carboxylic acid 3-thiophen-2-yl-prop-2-inyl ester]	–	–	< 400
CC1=C(C(=O)OCc2cc(Cl)cc(Cl)c2)C(CF)NC(=S)N1 (centres unmarked) [89′, 4-fluoromethyl-6-methyl-2-thioxo-1,2,3,4-tetrahydro-pyrimidine-5-carboxylic acid 3,5-dichloro-benzyl ester]	400	< 1000	–
CC1=C(C(=O)OCc2cccc(I)c2)CNC(=S)N1 [Compound 75, 6-methyl-2-thioxo-1,2,3,4-tetrahydro-pyrimidine-5-carboxylic acid 3-iodo-benzyl ester]	< 500	< 1000	–
COC(=O)C1=C(C(=O)OCc2ccccc2)CNC(=S)N1 [Compound 196, 2-thioxo-1,2,3,6-tetrahydro-pyrimidine-4,5-dicarboxylic acid 5-benzyl ester 4-methyl ester]	43000	> 20000	–
CC1=C(C(=O)OCCCc2cccc3ccccc23)C(CO)NC(=S)N1 (centres unmarked) [24″, 4-hydroxymethyl-6-methyl-2-thioxo-1,2,3,4-tetrahydro-pyrimidine-5-carboxylic acid 3-naphthalen-1-yl-propyl ester]	800	< 1000	–
CC1=C(C(=O)OC(C)CCc2ccccc2)CNC(=S)N1 (centres unmarked) [Compound 42, 6-methyl-2-thioxo-1,2,3,4-tetrahydro-pyrimidine-5-carboxylic acid 1-methyl-3-phenyl-propyl ester]	500	< 1000	–
CCCCCCOC(=O)C1=C(C)NC(=S)NC1 [Compound 30, 6-methyl-2-thioxo-1,2,3,4-tetrahydro-pyrimidine-5-carboxylic acid hexyl ester]	100	< 1000	–
CC1=C(C(=O)OCCc2ccsc2)C2(CCCC2)NC(=S)N1 [29′, 9-methyl-7-thioxo-6,8-diaza-spiro[4.5]dec-9-ene-10-carboxylic acid 2-thiophen-3-yl-ethyl ester]	12000	10000 to 20000	–
CC1=C(C(=O)OCCc2ccsc2)C(COCc2ccccc2)NC(=S)N1 (centres unmarked) [Compound 272, 4-benzyloxymethyl-6-methyl-2-thioxo-1,2,3,4-tetrahydro-pyrimidine-5-carboxylic acid 2-thiophen-3-yl-ethyl ester]	34000	> 20000	–
CCOc1ccccc1COC(=O)C1=C(C)NC(=S)NC1 [Compound 66, 6-methyl-2-thioxo-1,2,3,4-tetrahydro-pyrimidine-5-carboxylic acid 2-ethoxy-benzyl ester]	500	< 1000	–
COc1ccc(CCOC(=O)C2=C(C)NC(=S)NC2CO)cc1C (centres unmarked) [69″, 4-hydroxymethyl-6-methyl-2-thioxo-1,2,3,4-tetrahydro-pyrimidine-5-carboxylic acid 2-(4-methoxy-3-methyl-phenyl)-ethyl ester]	800	< 1000	–
CC1=C(C(=O)OCCc2cc3c(C)nn(C)c3s2)CNC(=S)N1 [Compound 267, 6-methyl-2-thioxo-1,2,3,4-tetrahydro-pyrimidine-5-carboxylic acid 2-(1,3-dimethyl-1H-thieno[2,3-c]pyrazol-5-yl)-ethyl ester]	24000	> 20000	–
CC1=C(C(=O)OCCc2ccsc2Br)CNC(=S)N1 [Compound 247, 6-methyl-2-thioxo-1,2,3,4-tetrahydro-pyrimidine-5-carboxylic acid 2-(2-bromo-thiophen-3-yl)-ethyl ester]	< 400	< 1000	–
CC1=C(C(=O)OCC#Cc2ccccc2)CNC(=S)N1 [Compound 192, 6-methyl-2-thioxo-1,2,3,4-tetrahydro-pyrimidine-5-carboxylic acid 3-phenyl-prop-2-inyl ester]	–	–	< 400
CC1=C(C(=O)OCc2cccc([N+](=O)[O-])c2)CNC(=S)N1 [Compound 77, 6-methyl-2-thioxo-1,2,3,4-tetrahydro-pyrimidine-5-carboxylic acid 3-nitro-benzyl ester]	2300	1000 to 10000	–
CC1=C(C(=O)OCc2ccc(C)cc2)CNC(=S)N1 [Compound 89, 6-methyl-2-thioxo-1,2,3,4-tetrahydro-pyrimidine-5-carboxylic acid 4-methyl-benzyl ester]	800	< 1000	–
